Structures can show the parent of a compound that is named as a salt.

Data on two molecules can be found in patent US20130065910A1, “ORAL MECLIZINE AQUEOUS FORMULATIONS WITH TASTE FLAVORING AGENT” (COMPREHENSIVE DRUG ENTERPRISES LTD., priority 2010, published 2013).

The conditions of data set [1]: cited from earlier work.
Data set [2] is described as follows: Solubility of meclizine hydrochloride in Solutol HS15 and HP-β-CD solutions. The conditions noted are these: aqueous with cosolvent or surfactant or cyclodextrin, thermodynamic from solid, room temperature (22° C.). It is filed as physicochemical. As to the method: The ability of Solutol® HS15 and HP-β-CD to enhance the aqueous solubility of meclizine hydrochloride is determined in this example.
Aqueous solutions containing 0.1, 0.5, 1, 2.5, 5, 10, 15, 20, and 25% (w/v) (w/v) of Solutol® HS15 or HP-β-CD solubilizers were prepared. 10 mg samples of meclizine hydrochloride were added to a 4 ml portion of each of the above solutions. The samples were left to be stirred overnight at room temperature (22° C.). If during this time all drug dissolved, additional meclizine was added until a suspension was formed (i.e. saturated drug solution formed). After further stirring for up to 24 hours, suspensions were centrifuged at 14000 rpm for 10 minutes, and then the supernatants were filtered (0.45 μm filter, Sartorius, Germany) to obtain saturated meclizine hydrochloride solutions. The filtrate samples were diluted and detected by HPLC and the concentration of meclizine hydrochloride in the samples was calculated with the calibration curve made from standard solutions of meclizine hydrochloride.

Another data set has as its system acetylcholine. The conditions noted are these: in vivo; cited from earlier work.
Data set [3] concerns isolated guinea pig ileum. Particulars: cited from earlier work.
The conditions of data set [4]: up to 225 mg/day for 9.5 years; cited from earlier work.
Data set [5] relates to histamine. The conditions noted are these: guinea pigs; cited from earlier work.
Data set [6] concerns histamine. The conditions noted are these: in vivo; cited from earlier work.

`Cc1cccc(CN2CCN(C(c3ccccc3)c3ccc(Cl)cc3)CC2)c1` (stereo not shown) [meclizine hydrochloride]: the solubility in alcohol result in data set [1] (alcohol) is on record as “slightly soluble”. In data set [1] (water), the solubility in water result is recorded as “practically insoluble”. Moreover, the solubility – broadly, how much of the substance goes into solution per volume – in data set [2] (0.1% (w/v) HP-β-CD aqueous solution) is 3.4 mg/mL; in data set [2] (0.1% (w/v) Solutol HS15 aqueous solution) it was 2.6 mg/mL; in data set [2] (0.5% (w/v) HP-β-CD aqueous solution) it was 6.1 mg/mL; in data set [2] (0.5% (w/v) Solutol HS15 aqueous solution), 3.2 mg/mL; in data set [2] (1% (w/v) HP-β-CD aqueous solution) it was 7.1 mg/mL; in data set [2] (1% (w/v) Solutol HS15 aqueous solution) it was 4.3 mg/mL. Besides, the solubility came out at 9.9 mg/mL in data set [2] (2.5% (w/v) HP-β-CD aqueous solution); 5.2 mg/mL in data set [2] (2.5% (w/v) Solutol HS15 aqueous solution); 14.3 mg/mL in data set [2] (5% (w/v) HP-β-CD aqueous solution); 9.2 mg/mL in data set [2] (5% (w/v) Solutol HS15 aqueous solution); 24.6 mg/mL in data set [2] (10% (w/v) HP-β-CD aqueous solution); 15.4 mg/mL in data set [2] (10% (w/v) Solutol HS15 aqueous solution). The solubility in data set [2] (15% (w/v) HP-β-CD aqueous solution) is 30.5 mg/mL; in data set [2] (15% (w/v) Solutol HS15 aqueous solution), 22.8 mg/mL; in data set [2] (20% (w/v) HP-β-CD aqueous solution) it was 34.3 mg/mL; in data set [2] (20% (w/v) Solutol HS15 aqueous solution), 36.8 mg/mL; in data set [2] (25% (w/v) HP-β-CD aqueous solution), 37.9 mg/mL; in data set [2] (25% (w/v) Solutol HS15 aqueous solution), 40.1 mg/mL.
Take `Cc1cccc(CN2CCN(C(c3ccccc3)c3ccc(Cl)cc3)CC2)c1` (stereo not shown) [meclizine, 1-[(4-chlorophenyl)-phenyl-methyl]-4-[(3-methylphenyl)methyl]piperazine]: the “blocking action against acetylcholine” value with acetylcholine is listed as “slight blocking action”. Moreover, the “inhibiting the spasmogenic action of histamine” value in data set [3] is recorded as “relatively weak”. Further, the “tolerability (adverse effects)” value in data set [4] was “no adverse effect reported”. In addition, the “protective activity against nebulized histamine and lethal doses of intravenously injected histamine” value in the data set with histamine [5] was “marked protective activity”. The “blocking the vasodepressor response to histamine” value with histamine [6] is given as “marked effect”.
